Results reported in ChEMBL document CHEMBL1201862, “PubChem BioAssay data set” (2004).
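Tested at 5 concentrations; 48 h exposure; 96-well plates; endpoints linearly interpolated, else capped at highest concentration. GI50 is the concentration that inhibits growth by half.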 Active and inactive are the calls of the source. No stated cut-off is given here; in the data, active = GI50 up to about 1.1 µM and inactive = higher.

Key:
Experiment in all cases: NCI tumour cell line growth inhibition, 48 h
[1] = tested on: HL-60
[2] = tested on: SF-295
[3] = tested on: MDA-MB-231
[4] = tested on: MCF7
[5] = tested on: CAKI-1
[6] = tested on: SK-MEL-28
[7] = tested on: NCI-H460
[8] = tested on: IGROV-1
[9] = tested on: HOP-92
[10] = tested on: U-251
[11] = tested on: HCT-15
[12] = tested on: UACC-62
[13] = tested on: NCI/ADR-RES
[14] = tested on: Malme-3M
[15] = tested on: HCT-116
[16] = tested on: SK-OV-3
[17] = tested on: A549
[18] = tested on: SK-MEL-5
[19] = tested on: SN12C
[20] = tested on: SF-268

Structure (SMILES)	GI50 [1]	GI50 [2]	GI50 [3]	GI50 [4]	GI50 [5]	GI50 [6]	GI50 [7]	GI50 [8]	GI50 [9]	GI50 [10]	GI50 [11] [µM]	GI50 [12]	GI50 [13]	GI50 [14]	GI50 [15]	GI50 [16]	GI50 [17]	GI50 [18]	GI50 [19]	GI50 [20]
COc1ccc(S(=O)(=O)N/N=C/C(=O)O)cc1	185 µM (inactive)	465 µM (inactive)	822 µM (inactive)	409 µM (inactive)	458 µM (inactive)	764 µM (inactive)	359 µM (inactive)	427 µM (inactive)	364 µM (inactive)	499 µM (inactive)	542	327 µM (inactive)	490 µM (inactive)	832 µM (inactive)	445 µM (inactive)	971 µM (inactive)	849 µM (inactive)	400 µM (inactive)	475 µM (inactive)	384 µM (inactive)
O=C(/C=C/c1ccc2c(c1)OCO2)Cc1nc2ncccc2[nH]c1=O	> 100 µM (inactive)	69.3 µM (inactive)	> 100 µM (inactive)	> 100 µM (inactive)	> 100 µM (inactive)	> 100 µM (inactive)	> 100 µM (inactive)	94.6 µM (inactive)	> 100 µM (inactive)	31.1 µM (inactive)	92.7	9.53 µM (inactive)	> 100 µM (inactive)	> 100 µM (inactive)	> 100 µM (inactive)	98.9 µM (inactive)	> 100 µM (inactive)	> 100 µM (inactive)	> 100 µM (inactive)	49.7 µM (inactive)
CCOC(=O)c1ccc(C(=O)/C(C#N)=C2\CCCN2)[nH]1	66.5 µM (inactive)	> 100 µM (inactive)	> 100 µM (inactive)	98.4 µM (inactive)	> 100 µM (inactive)	> 100 µM (inactive)	> 100 µM (inactive)	> 100 µM (inactive)	> 100 µM (inactive)	> 100 µM (inactive)	> 100	> 100 µM (inactive)	78.3 µM (inactive)	> 100 µM (inactive)	82.4 µM (inactive)	> 100 µM (inactive)	50.5 µM (inactive)	41.9 µM (inactive)	> 100 µM (inactive)	> 100 µM (inactive)
O=P1(O)c2ccccc2Nc2cc(C(F)(F)F)ccc21	> 100 µM (inactive)	> 100 µM (inactive)	> 100 µM (inactive)	> 100 µM (inactive)	> 100 µM (inactive)	> 100 µM (inactive)	> 100 µM (inactive)	> 100 µM (inactive)	> 100 µM (inactive)	> 100 µM (inactive)	> 100	> 100 µM (inactive)	> 100 µM (inactive)	> 100 µM (inactive)	> 100 µM (inactive)	> 100 µM (inactive)	> 100 µM (inactive)	> 100 µM (inactive)	> 100 µM (inactive)	> 100 µM (inactive)
O=S(=O)(N=S(c1ccc(Cl)cc1)c1ccc(Cl)cc1)c1ccccc1	27.5 µM (inactive)	68.5 µM (inactive)	> 100 µM (inactive)	50.9 µM (inactive)	> 100 µM (inactive)	> 100 µM (inactive)	88.7 µM (inactive)	> 100 µM (inactive)	> 100 µM (inactive)	> 100 µM (inactive)	65.8	60.3 µM (inactive)	63 µM (inactive)	> 100 µM (inactive)	59.3 µM (inactive)	> 100 µM (inactive)	74.5 µM (inactive)	71 µM (inactive)	9.95 µM (inactive)	> 100 µM (inactive)
CCCCC(C(=O)N/N=C/c1ccc([N+](=O)[O-])o1)C(=O)N/N=C/c1ccc([N+](=O)[O-])o1	2.52 µM (inactive)	15.7 µM (inactive)	3.81 µM (inactive)	4.51 µM (inactive)	4.06 µM (inactive)	3.96 µM (inactive)	15.1 µM (inactive)	2.17 µM (inactive)	1.52 µM (inactive)	2.74 µM (inactive)	2.26	2.91 µM (inactive)	2.64 µM (inactive)	2.2 µM (inactive)	1.36 µM (inactive)	21.1 µM (inactive)	17.7 µM (inactive)	3.37 µM (inactive)	3.66 µM (inactive)	5.65 µM (inactive)
CC[C@H]1C=CCC[C@@]2(C[C@@H]3CC[C@@H]4[C@H](C(=O)OCCCCCCCCCCCCCCCC(=O)N(CCCNC(C)=O)C[C@H](CCNC(C)=O)OC(C)=O)[C@]5(CCC[C@@H](C)O5)NC(=[N+]34)N2)O1	0.0745 µM (active)	0.391 µM (active)	0.0914 µM (active)	0.0861 µM (active)	0.561 µM (active)	0.757 µM (active)	0.131 µM (active)	0.0583 µM (active)	0.0659 µM (active)	0.0538 µM (active)	0.904	0.0752 µM (active)	2.74 µM (inactive)	0.21 µM (active)	0.0405 µM (active)	1.43 µM (inactive)	0.215 µM (active)	0.124 µM (active)	0.516 µM (active)	0.187 µM (active)
O=C1c2c(ccc3c2CCCC3)CC12Cc1ccccc1C2	11.2 µM (inactive)	19 µM (inactive)	18.1 µM (inactive)	17 µM (inactive)	7.62 µM (inactive)	14.4 µM (inactive)	4.93 µM (inactive)	30.2 µM (inactive)	12.7 µM (inactive)	27.2 µM (inactive)	4.75	13.5 µM (inactive)	15.8 µM (inactive)	5.48 µM (inactive)	5.43 µM (inactive)	30.6 µM (inactive)	13.1 µM (inactive)	6.19 µM (inactive)	21.8 µM (inactive)	43.2 µM (inactive)
COc1ccc(N2C(=O)/C(=C/c3ccc(N(CCC#N)CCC#N)cc3)N=C2c2ccccc2)c(OC)c1	30.3 µM (inactive)	> 100 µM (inactive)	> 100 µM (inactive)	61.7 µM (inactive)	> 100 µM (inactive)	> 100 µM (inactive)	> 100 µM (inactive)	> 100 µM (inactive)	31.1 µM (inactive)	48.2 µM (inactive)	40.2	> 100 µM (inactive)	52.8 µM (inactive)	> 100 µM (inactive)	69.2 µM (inactive)	> 100 µM (inactive)	–	> 100 µM (inactive)	> 100 µM (inactive)	> 100 µM (inactive)
COC(=O)c1csc([C@@H](OC(=O)[C@H](C)[C@H](CCCC(C)(Cl)Cl)OC(=O)c2csc([C@H](O)CO)n2)C(C)C)n1	17.9 µM (inactive)	15.7 µM (inactive)	17.6 µM (inactive)	18 µM (inactive)	17.7 µM (inactive)	11.8 µM (inactive)	9.89 µM (inactive)	11.3 µM (inactive)	10.7 µM (inactive)	17.8 µM (inactive)	16.4	11.6 µM (inactive)	18.3 µM (inactive)	17.3 µM (inactive)	–	16.2 µM (inactive)	17.9 µM (inactive)	17.9 µM (inactive)	1.99 µM (inactive)	17.7 µM (inactive)
COc1ccc(OC)c2sc(N3C(=O)/C(=C/c4ccc(Cl)cc4)N=C3c3ccccc3)nc12	40.6 µM (inactive)	76.6 µM (inactive)	> 100 µM (inactive)	29.7 µM (inactive)	> 100 µM (inactive)	> 100 µM (inactive)	80.5 µM (inactive)	85.9 µM (inactive)	49.5 µM (inactive)	40.7 µM (inactive)	98.4	76.6 µM (inactive)	> 100 µM (inactive)	> 100 µM (inactive)	> 100 µM (inactive)	> 100 µM (inactive)	> 100 µM (inactive)	65 µM (inactive)	> 100 µM (inactive)	98.9 µM (inactive)
Cc1ccc(C)n1-c1ccccc1C1SCCCS1	16.9 µM (inactive)	54.1 µM (inactive)	49.9 µM (inactive)	37.3 µM (inactive)	> 100 µM (inactive)	> 100 µM (inactive)	> 100 µM (inactive)	> 100 µM (inactive)	> 100 µM (inactive)	> 100 µM (inactive)	> 100	> 100 µM (inactive)	> 100 µM (inactive)	> 100 µM (inactive)	> 100 µM (inactive)	> 100 µM (inactive)	98.9 µM (inactive)	> 100 µM (inactive)	> 100 µM (inactive)	> 100 µM (inactive)
CN(C)c1ccc(/C=C2\N=C(c3ccccc3)N(c3nc4ccc(Sc5ccccc5)cc4[nH]3)C2=O)cc1	6.61 µM (inactive)	23.6 µM (inactive)	49.1 µM (inactive)	30 µM (inactive)	35.4 µM (inactive)	57.1 µM (inactive)	30 µM (inactive)	61.5 µM (inactive)	94.4 µM (inactive)	47.9 µM (inactive)	36.5	22.5 µM (inactive)	25.9 µM (inactive)	99.8 µM (inactive)	36.3 µM (inactive)	13.7 µM (inactive)	41.5 µM (inactive)	32.4 µM (inactive)	45.4 µM (inactive)	43.8 µM (inactive)
Nc1c2c(nc3ccccc13)-c1ccccc1NCCC2	18.4 µM (inactive)	17.7 µM (inactive)	19.7 µM (inactive)	34.2 µM (inactive)	30.8 µM (inactive)	18.2 µM (inactive)	15.3 µM (inactive)	33.3 µM (inactive)	13.9 µM (inactive)	32.2 µM (inactive)	35.6	18.3 µM (inactive)	68.2 µM (inactive)	18 µM (inactive)	23.3 µM (inactive)	64.6 µM (inactive)	47.4 µM (inactive)	15.1 µM (inactive)	33.3 µM (inactive)	45.1 µM (inactive)
